Source: ChEMBL document CHEMBL1155921, “Synthesis and biological evaluation of novel 1-O- and 14-O-derivatives of oridonin as potential anticancer drug candidates” (Bioorg Med Chem Lett, 2008)

Tests used:
H22 [1] = test: Antitumor activity in mouse H22 cell xenografted mouse at 20 mg/kg/day, ip after 4 days; format: functional; conditions: 96 h, route intraperitoneal
Bel-7402 = test: Cytotoxicity against human BEL-7402 cells by MTT assay; format: functional, cell-based
A549 = test: Cytotoxicity against human A549 cells by MTT assay; format: functional, cell-based
SW480 = test: Cytotoxicity against human SW480 cells by MTT assay; format: functional, cell-based
[2] = Cytotoxicity against human BGC-7901 cells by MTT assay; format: functional, cell-based
HL-60 = test: Cytotoxicity against human HL60 cells by MTT assay; format: functional, cell-based
B16 [3] = test: Antitumor activity in mouse B16 cell xenografted mouse at 20 mg/kg/day, ip after 4 days; format: functional; conditions: 96 h, route intraperitoneal
B16 [4] = test: Cytotoxicity against mouse B16 cells by MTT assay; format: functional, cell-based
H22 [5] = test: Antitumor activity in mouse H22 cell xenografted mouse at 20 mg/kg/day, iv after 4 days; conditions: 96 h, read-out: INH
B16 [6] = test: Antitumor activity in mouse B16 cell xenografted mouse at 20 mg/kg/day, iv after 4 days; format: functional; conditions: B16, 96 h

C=C1C(=O)[C@]23[C@H](OC(=O)C(Cc4ccccc4)NC(=O)/C=C/C(=O)O)[C@@H]1CC[C@H]2[C@@]12CO[C@]3(O)[C@@H](O)[C@@H]1C(C)(C)CCC2=O (stereo partly specified)
inhibition in vivo at 20 mg/kg/day (H22 [1]): 62.5% | IC50 (Bel-7402; read-out: IC50): 1 µM | IC50 (A549): 3.46 µM | IC50 (SW480): 2.89 µM | IC50 [2]: 3.02 µM | IC50 (HL-60): 2.07 µM | inhibition in vivo at 20 mg/kg/day (B16 [3]): 61.2% | IC50 (B16 [4]): 8.22 µM

C=C1C(=O)[C@]23[C@H](OC(=O)C(Cc4ccccc4)NC(=O)CCCCC(=O)O)[C@@H]1CC[C@H]2[C@@]12CO[C@]3(O)[C@@H](O)[C@@H]1C(C)(C)CCC2=O (stereo partly specified)
IC50 (Bel-7402; read-out: IC50): 12.8 µM | IC50 (A549): 8.06 µM | IC50 (SW480): 7.3 µM | IC50 [2]: 7.05 µM | IC50 (HL-60): 6.24 µM | IC50 (B16 [4]): 13.9 µM

C=C1C(=O)[C@]23[C@H](OC(=O)CNC(=O)CCC(=O)O)[C@@H]1CC[C@H]2[C@@]12CO[C@]3(O)[C@@H](O)[C@@H]1C(C)(C)CCC2=O
IC50 (Bel-7402; read-out: IC50): 2.09 µM | IC50 (A549): 11.5 µM | IC50 (SW480): 10.2 µM | IC50 [2]: 15.6 µM | IC50 (HL-60): 7.76 µM | IC50 (B16 [4]): 8.57 µM

C=C1C(=O)[C@]23[C@H](OC(=O)C(N)Cc4ccccc4)[C@@H]1CC[C@H]2[C@@]12CO[C@]3(O)[C@@H](O)[C@@H]1C(C)(C)CCC2=O (stereo partly specified)
IC50 (Bel-7402; read-out: IC50): 29.6 µM | IC50 (A549): 22.2 µM | IC50 (SW480): 15 µM | IC50 [2]: 10.5 µM | IC50 (HL-60): 27.5 µM | IC50 (B16 [4]): 10.2 µM

C=C1C(=O)[C@]23[C@H](OC(=O)CN)[C@@H]1CC[C@H]2[C@@]12CO[C@]3(O)[C@@H](O)[C@@H]1C(C)(C)CC[C@@H]2OC(C)=O
IC50 (Bel-7402; read-out: IC50): 17.9 µM | IC50 (A549): 11 µM | IC50 (SW480): 22.3 µM | IC50 [2]: 18.2 µM | IC50 (HL-60): 12.3 µM | IC50 (B16 [4]): 12.4 µM

C=C1C(=O)[C@]23[C@H](OC(=O)CNC(=O)c4ccccc4C(=O)O)[C@@H]1CC[C@H]2[C@@]12CO[C@]3(O)[C@@H](O)[C@@H]1C(C)(C)CC[C@@H]2OS(=O)(=O)CCC
IC50 (Bel-7402; read-out: IC50): 39.1 µM | IC50 (A549): 22.7 µM | IC50 (SW480): 25.4 µM | IC50 [2]: 20.9 µM | IC50 (HL-60): 13.8 µM | IC50 (B16 [4]): 17.6 µM

C=C1C(=O)[C@]23[C@H](OC(=O)CNC(=O)CCCCC(=O)O)[C@@H]1CC[C@H]2[C@@]12CO[C@]3(O)[C@@H](O)[C@@H]1C(C)(C)CC[C@@H]2OS(=O)(=O)CCC
IC50 (Bel-7402; read-out: IC50): 24.8 µM | IC50 (A549): 14 µM | IC50 (SW480): 11.2 µM | IC50 [2]: 15.3 µM | IC50 (HL-60): 9.5 µM | IC50 (B16 [4]): 13 µM

C=C1C(=O)[C@]23[C@H](OC(=O)CNC(=O)CCCCC(=O)O)[C@@H]1CC[C@H]2[C@@]12CO[C@]3(O)[C@@H](O)[C@@H]1C(C)(C)CCC2=O
IC50 (Bel-7402; read-out: IC50): 13.8 µM | IC50 (A549): 7.47 µM | IC50 (SW480): 10.2 µM | IC50 [2]: 15.1 µM | IC50 (HL-60): 8.65 µM | IC50 (B16 [4]): 16.4 µM

C=C1C(=O)[C@]23[C@H](OC(=O)C(Cc4ccccc4)NC(=O)CCC(=O)O)[C@@H]1CC[C@H]2[C@@]12CO[C@]3(O)[C@@H](O)[C@@H]1C(C)(C)CCC2=O (stereo partly specified)
inhibition in vivo at 20 mg/kg/day (H22 [1]): 59.1% | IC50 (Bel-7402; read-out: IC50): 6.5 µM | IC50 (A549): 17.1 µM | IC50 (SW480): 12.9 µM | IC50 [2]: 5.96 µM | IC50 (HL-60): 2.31 µM | inhibition in vivo at 20 mg/kg/day (B16 [3]): 56.6% | IC50 (B16 [4]): 14.8 µM

C=C1C(=O)[C@]23[C@H](OC(=O)CNC(=O)CCCCC(=O)O)[C@@H]1CC[C@H]2[C@@]12CO[C@]3(O)[C@@H](O)[C@@H]1C(C)(C)CC[C@@H]2OC(C)=O
IC50 (Bel-7402; read-out: IC50): 8.26 µM | IC50 (A549): 10.5 µM | IC50 (SW480): 10.7 µM | IC50 [2]: 13.2 µM | IC50 (HL-60): 5.3 µM | IC50 (B16 [4]): 12.5 µM

C=C1C(=O)[C@]23[C@H](OC(=O)CNC(=O)/C=C/C(=O)O)[C@@H]1CC[C@H]2[C@@]12CO[C@]3(O)[C@@H](O)[C@@H]1C(C)(C)CC[C@@H]2OS(=O)(=O)CCC
IC50 (Bel-7402; read-out: IC50): 19.1 µM | IC50 (A549): 1.33 µM | IC50 (SW480): 14.7 µM | IC50 [2]: 5.52 µM | IC50 (HL-60): 1.97 µM | IC50 (B16 [4]): 5.66 µM

C=C1C(=O)[C@]23[C@H](OC(=O)CNC(=O)/C=C/C(=O)O)[C@@H]1CC[C@H]2[C@@]12CO[C@]3(O)[C@@H](O)[C@@H]1C(C)(C)CC[C@@H]2OC(C)=O
inhibition in vivo at 20 mg/kg/day (H22 [1]): 64.9% | IC50 (Bel-7402; read-out: IC50): 1 µM | IC50 (A549): 2.6 µM | IC50 (SW480): 2.6 µM | IC50 [2]: 2.78 µM | IC50 (HL-60): 0.84 µM | inhibition in vivo at 20 mg/kg/day (B16 [3]): 69.9% | IC50 (B16 [4]): 0.93 µM

C=C1C(=O)[C@]23[C@H](OC(=O)CN)[C@@H]1CC[C@H]2[C@@]12CO[C@]3(O)[C@@H](O)[C@@H]1C(C)(C)CCC2=O
IC50 (Bel-7402; read-out: IC50): 30.3 µM | IC50 (A549): 20.6 µM | IC50 (SW480): 28.4 µM | IC50 [2]: 20.9 µM | IC50 (HL-60): 24.8 µM | IC50 (B16 [4]): 19.1 µM

C=C1C(=O)[C@]23[C@H](OC(=O)CN)[C@@H]1CC[C@H]2[C@@]12CO[C@]3(O)[C@@H](O)[C@@H]1C(C)(C)CC[C@@H]2OS(=O)(=O)CCC
IC50 (Bel-7402; read-out: IC50): 20.2 µM | IC50 (A549): 16.3 µM | IC50 (SW480): 24.7 µM | IC50 [2]: 15.9 µM | IC50 (HL-60): 19.8 µM | IC50 (B16 [4]): 21.7 µM

O=P1(N(CCCl)CCCl)NCCCO1 (stereo unspecified) [CYCLOPHOSPHAMIDE ANHYDROUS]
inhibition in vivo at 20 mg/kg/day (H22 [5]): 54.3%

O=c1[nH]cc(F)c(=O)[nH]1 [FLUOROURACIL]
IC50 (Bel-7402): 14.4 µM | IC50 (A549): 10.8 µM | IC50 (SW480): 13.2 µM | IC50 [2]: 16.4 µM | IC50 (HL-60): 21.4 µM | inhibition in vivo at 20 mg/kg/day (B16 [6]): 73.5% | IC50 (B16 [4]): 8.73 µM

C=C1C(=O)[C@]23[C@H](O)[C@H]1CC[C@H]2[C@@]12CO[C@]3(O)[C@@H](O)[C@@H]1C(C)(C)CC[C@@H]2O [ORIDONIN]
inhibition in vivo at 20 mg/kg/day (H22 [1]): 42.7% | IC50 (Bel-7402; read-out: IC50): 39.8 µM | IC50 (A549): 27.2 µM | IC50 (SW480): 31.4 µM | IC50 [2]: 28.3 µM | IC50 (HL-60): 32.8 µM | inhibition in vivo at 20 mg/kg/day (B16 [3]): 45.9% | IC50 (B16 [4]): 26.2 µM
